Measured values: patent publication US7625887B2, “Receptor agonists” (Takeda Pharmaceutical Company Limited, priority 2003, dated 2009)

Assays:
Assay type in all cases: cell-based
[1] = test system: mock CHO cells free of human TGR5 expression; assay: cAMP production increasing activity in mock CHO cells free of human TGR5 expression; conditions: test compounds 2 μM, average of 3 groups
Experimental: As the assay buffer, Hank's balanced salt solution (HBSS, Invitrogen) supplemented with 0.1% bovine serum albumin (BSA, Sigma) and 0.2 mM 3-isobutyl-1-methylxanthine (IBMX, Sigma) was used. The cells were washed twice with the assay buffer and preincubated at 37° C. for 30 min. The cells were washed twice, and test compound samples (10 μM) diluted with the assay buffer to various concentrations were added. The cells were incubated at 37° C. for 20 min. The culture supernatant was discarded, and the cAMP production amount was measured using a cAMP Screen System (ABI).

[2] = target: T1, rabbit TGR5 (Oryctolagus cuniculus, UniProt Q862A8); assay: cAMP production increasing activity in rabbit TGR5 expressing CHO cells; conditions: Experimental Example 6; 2 μM; 10 μM lithocholic acid = 100%; average of 3 groups
T1 construct: expressed in transfected cells; host or cells: CHO cells
T1 sequence (Q862A8 1-330): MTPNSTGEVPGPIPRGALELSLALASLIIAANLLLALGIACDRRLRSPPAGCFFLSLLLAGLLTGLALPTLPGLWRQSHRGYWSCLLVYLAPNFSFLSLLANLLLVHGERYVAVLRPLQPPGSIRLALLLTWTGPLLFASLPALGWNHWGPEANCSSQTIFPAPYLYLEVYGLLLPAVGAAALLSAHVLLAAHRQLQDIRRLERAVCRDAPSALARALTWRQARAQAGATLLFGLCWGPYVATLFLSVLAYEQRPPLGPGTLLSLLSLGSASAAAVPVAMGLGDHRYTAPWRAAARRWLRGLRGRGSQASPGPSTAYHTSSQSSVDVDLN
Experimental: As the assay buffer, Hank's balanced salt solution (HBSS, Invitrogen) supplemented with 0.1% bovine serum albumin (BSA, Sigma) and 0.2 mM 3-isobutyl-1-methylxanthine (IBMX, Sigma) was used. The cells were washed twice with the assay buffer and preincubated at 37° C. for 30 min. The cells were washed twice and test compound samples (2 μM) diluted with the assay buffer were added. The cells were incubated at 37° C. for 20 min. The culture supernatant was discarded, and the cAMP production amount was measured using a cAMP Screen System (ABI).

[3] = target: T2, human TGR5 (Homo sapiens, UniProt Q8TDU6); assay: cAMP production increasing activity in human TGR5 expressing CHO cells; conditions: test compound 1 μM, 30 min; 1 μM lithocholic acid = 100%, no addition = 0%; average of 3 groups
T2 construct: expressed in transfected cells; host or cells: CHO cells
T2 sequence (Q8TDU6 1-330): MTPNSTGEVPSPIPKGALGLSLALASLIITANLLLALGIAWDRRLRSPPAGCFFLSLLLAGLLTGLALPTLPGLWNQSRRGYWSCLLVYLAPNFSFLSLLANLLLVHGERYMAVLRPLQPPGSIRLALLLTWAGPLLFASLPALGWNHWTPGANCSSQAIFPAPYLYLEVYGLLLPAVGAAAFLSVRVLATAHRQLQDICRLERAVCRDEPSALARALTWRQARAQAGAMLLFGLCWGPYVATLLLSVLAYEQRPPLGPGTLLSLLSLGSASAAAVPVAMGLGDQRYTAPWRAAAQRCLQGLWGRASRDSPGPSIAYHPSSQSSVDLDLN
Experimental: As the assay buffer, Hank's balanced salt solution (HBSS, Invitrogen) supplemented with 0.1% bovine serum albumin (BSA, Sigma) and 0.5 mM 3-isobutyl-1-methylxanthine (IBMX, Sigma) was used. A test compound sample (1 μM) diluted with the assay buffer was added to the cells. The cells were incubated at 37° C. for 30 min. and the supernatant was suctioned. The intracellular cAMP amount increased by the stimulation of the test compound was quantitatively determined using a HitHunter™ EFC Cyclic AMP Chemiluminescence Assay Kit (ABI) kit.

[4] = Experimental Example 5, Base 0.19

Row | Structure (SMILES) | cAMP production increasing activity [1, 4] [pmol] | cAMP production increasing activity (control %) [2] [control %] | cAMP production increasing activity (control %) [3] [control %] | cAMP production increasing activity ([1]; Experimental Example 4, Base 0.28) [pmol]
1 | FC(F)(F)c1cc(CN2CCCOc3nccc(-c4ccccc4)c3C2)cc(C(F)(F)F)c1.FC(F)(F)c1cc(CN2CCCOc3nccc(-c4ccccc4)c3C2)cc(C(F)(F)F)c1.O=S(=O)(O)O [Example 18C, 5-[3,5-bis(trifluoromethyl)benzyl]-7-phenyl-3,4,5,6-tetrahydro-2H-pyrido[2,3-b][1,5]oxazocine ½sulfate] | 0.17 | 106 | 112 | 
2 | O=C(c1cc(C(F)(F)F)cc(C(F)(F)F)c1)N1CCOc2nccc(-c3ccccc3)c2C1 [Example 14C, 4-[3,5-bis(trifluoromethyl)benzoyl]-6-phenyl-2,3,4,5-tetrahydropyrido[3,2-f][1,4]oxazepine] | 0.17 | 116 | 100 | 
3 | CC(C)(C)CN1C(=O)C(CC(=O)NCc2ccccc2F)N(C(=O)c2ccncc2)Cc2ccccc21 (stereo not drawn) [Example 1B, N-(2-fluorobenzyl)-2-(4-isonicotinoyl-1-neopentyl-2-oxo-2,3,4,5-tetrahydro-1H-1,4-benzodiazepin-3-yl)acetamide] |  | 71.2 | 113 | 0.23
